From patent publication US10266577B2, “GLP-1 derivatives, and uses thereof” (Novo Nordisk A/S, priority 2013, dated 2019)
Numbered stars: 1 amine (or outer) side, 2 acyl side, 3 side chain; on linkers, the order of the positions; unused ones are H or OH. Bridge positions count the residues as written; N and C are the ends. Square brackets hold non-standard residues; d marks the D form. Side chains are listed from the residue outwards. Ends that are not written are not given here. Peptide text beside a SMILES is read from it. I, II: the chains in the order shown. * marks the point of attachment. C18 diacid = O=C(O)CCCCCCCCCCCCCCCCC(=O)*; γGlu = O=C(O)[C@H](CCC(=O)[*:2])N[*:1]; AEEA = NCCOCCOCC(=O)O; Aib = CC(C)(N)C(=O)O

What was measured:
human GLP-1 receptor [1] = target: T1, human GLP-1 receptor (Homo sapiens, UniProt P43220); assay: In vitro potency: CRE luciferase reporter gene assay in BHK cells expressing the human GLP-1 receptor; assay type: cell-based; settings: whole cell reporter gene assay, BHK clone FCW467-12A/KZ10-1; averages of at least two replicates
T1 construct: expressed in transfected cells; host or cells: BHK cells (parent line BHKTS13), clone FCW467-12A; membrane preparation
T1 sequence (P43220 24-463): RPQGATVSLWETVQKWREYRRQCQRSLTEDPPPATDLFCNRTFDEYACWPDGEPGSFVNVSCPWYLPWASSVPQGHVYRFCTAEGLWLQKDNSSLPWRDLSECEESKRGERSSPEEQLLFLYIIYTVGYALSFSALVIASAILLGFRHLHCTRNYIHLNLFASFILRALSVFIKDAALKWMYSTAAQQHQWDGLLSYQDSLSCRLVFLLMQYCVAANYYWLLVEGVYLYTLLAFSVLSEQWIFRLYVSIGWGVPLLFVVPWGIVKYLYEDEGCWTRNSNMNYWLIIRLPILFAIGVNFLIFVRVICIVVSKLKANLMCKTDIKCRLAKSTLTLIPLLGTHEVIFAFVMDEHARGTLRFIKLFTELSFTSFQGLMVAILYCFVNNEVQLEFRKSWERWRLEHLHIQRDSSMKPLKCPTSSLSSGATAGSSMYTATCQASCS
Experimental: The purpose of this example is to test the activity, or potency, of the GLP-1 derivatives in vitro. The in vitro potency is the measure of human GLP-1 receptor activation in a whole cell assay.
In vitro potency was determined by measuring the response of the human GLP-1 receptor in a reporter gene assay. The assay was performed in a stably transfected BHK cell line that expresses the human GLP-1 receptor and contains the DNA for the cAMP response element (CRE) coupled to a promoter and the gene for firefly luciferase (CRE luciferase). When the human GLP-1 receptor is activated it results in the production of cAMP, which in turn results in the luciferase protein being expressed. When assay incubation is completed the luciferase substrate (luciferin) is added and the enzyme converts luciferin to oxyluciferin to produce bioluminescence. The luminescence is measured as the readout for the assay.
The cells were cultured at 5% CO2 in Cell Culture Medium. They were aliquoted and stored in liquid nitrogen. Before each assay an aliquot is taken up and washed twice in PBS before being suspended at the desired concentration in the assay specific buffer. For 96-well plates the suspension was made to give a final concentration of 5×10^3 cells/well.
The following chemicals were used in the assay: Pluronic F-68 (10%) (Gibco 2404), human serum albumin (HSA) (Sigma A9511), ovalbumin (Sigma A5503), DMEM w/o phenol red (Gibco 11880-028), 1 M Hepes (Gibco 15630), Glutamax 100× (Gibco 35050) and steadylite plus (PerkinElmer 6016757).
Cell Culture Medium consisted of DMEM medium with 10% FBS (Fetal Bovine Serum; Invitrogen 16140-071), 1 mg/ml G418 (Invitrogen 15140-122), 240 nM MTX (methotrexate; Sigma M9929) and 1% pen/strep (penicillin/streptomycin; Invitrogen 15140-122).
Assay Medium consisted of DMEM w/o phenol red, 10 mM Hepes and 1× Glutamax. The Assay Buffer consisted of 2% ovalbumin and 0.2% Pluronic F-68 in Assay Medium.
1) Cell stocks were thawed in a 37° C. water bath.
2) Cells were washed three times in PBS.
3) The cells were counted and adjusted to 5×10^3 cells/50 μl (1×10^5 cells/ml) in Assay Medium. A 50 μl aliquot of cells was transferred to each well in the assay plate.
4) Stocks of the test compounds and reference compounds were diluted to a concentration of 0.2 pM in Assay Buffer. […] Compounds were tested at the following final concentrations: 1×10^−7 M, 1×10^−8 M; 1×10^−9 M, 1×10^−10 M, 1×10^−11 M, 1×10^−12 M, 1×10^−13 M, and 1×10^−14 M. 6) The assay plate was incubated for 3 h in a 5% CO2 incubator at 37° C. 7) The assay plate was removed from the incubator and allowed to stand at room temperature for 15 min. 8) A 100 μl aliquot of steadylite plus reagent was added to each well of the assay plate (reagent was light sensitive). 9) Each assay plate was covered with aluminum foil to protect it from light and shaken for 30 min at room temperature. 10) Each assay plate was read in a Packard TopCount NXT instrument. Calculations and Results
The data from the TopCount instrument were transferred to GraphPad Prism software. The software performs a non-linear regression (log(agonist) vs response).
A minimum of two replicates was measured for each sample. The reported values are averages of the replicates.

in vivo = settings: male, Göttingen, minipig, iv
Experimental: (§1) The purpose of this study is to determine the protraction in vivo of the GLP-1 derivatives after i.v. administration to minipigs, i.e. the prolongation of their time in the body and thereby their time of action. This is done in a pharmacokinetic (PK) study, where the terminal half-life of the derivative in question is determined. By terminal half-life is meant the time it takes to halve a certain plasma concentration in the terminal elimination phase.
(§2) Male Göttingen minipigs were obtained from Ellegaard Göttingen Minipigs (Dalmose, Denmark) approximately 7-14 months of age and weighing approximately 16-35 kg were used in the studies. The minipigs were housed either individually (pigs with permanent catheters) or in a group and fed restrictedly once or twice daily with SDS minipig diet (Special Diets Services, Essex, UK).
(§3) After at least 2 weeks of acclimatisation two permanent central venous catheters were implanted in vena cava caudalis or cranialis in each animal. The animals were allowed 1 week recovery after the surgery, and were then used for repeated pharmacokinetic studies with a suitable wash-out period between successive GLP-1 derivative dosings.
(§4) Blood samples (for example 0.8 ml) were collected in EDTA buffer (8 mM) and then centrifuged at 4° C. and 1942G for 10 minutes.
(§5) Plasma was pipetted into Micronic tubes on dry ice, and kept at −20° C. until analysed for plasma concentration of the respective GLP-1 compound using LOCI. Individual plasma concentration-time profiles were analyzed by a non-compartmental pharmacokinetic method in Phoenix v. 6.2 (Pharsight Inc., Mountain View, Calif., USA), or other relevant software for PK analysis, and the resulting terminal half-lives (harmonic mean) determined.

human GLP-1 receptor [2] = target: T1, human GLP-1 receptor; assay: GLP-1 receptor binding: competitive binding assay (125I-GLP-1, SPA) on isolated membranes at low and high HSA; settings: displacement of 125I-GLP-1; for IC50: high serum albumin (2.0% HSA final assay concentration)
Experimental: The purpose of this example is to test the receptor binding of the GLP-1 derivatives in vitro. The receptor binding is a measure of affinity of a derivative for the human GLP-1 receptor.
In this type of assay a labelled ligand (in this case ^125I-GLP-1) is bound to the receptor. Each derivative is added in a series of concentrations to isolated membranes containing the human GLP-1 receptor and displacement of the labelled ligand is monitored. The receptor binding is reported as the concentration at which half of the labelled ligand is displaced from the receptor, the IC50 value.
The following chemicals were used in the assay: Human serum albumin (HSA) (Sigma A1653), DMEM w/o phenol red (Gibco 11880-028), Pen/strep (Invitrogen 15140-122), G418 (Invitrogen 10131-027), 1 M Hepes (Gibco 15630), EDTA (Invitrogen 15575-038), PBS (Invitrogen 14190-094), fetal calf serum (Invitrogen 16140-071), EGTA, MgCl2 (Merck 1.05832.1000), Tween 20 (Amresco 0850C335), SPA particles (wheat germ agglutinin (WGA) SPA beads, Perkin Elmer RPNQ0001), [^125I]-GLP-1]-(7-36)NH2 (produced in-house), OptiPlate™-96 (Packard 6005290).
Buffer 1 consisted of 20 mM Na-HEPES plus 10 mM EDTA and pH was adjusted to 7.4. Buffer 2 consisted of 20 mM Na-HEPES plus 0.1 mM EDTA and pH was adjusted to 7.4. Assay buffer consisted of 50 mM HEPES supplemented with 5 mM EGTA, 5 mM MgCl2, 0.005% Tween 20 and pH was adjusted to 7.4. An 8% albumin stock consisted of HSA dissolved at 8% (w/v) in assay buffer. An 0.02% albumin stock consisted of HSA dissolved at 0.02% (w/v) in assay buffer.
The cells express the human GLP-1 receptor.
The cells were grown at 5% CO2 in DMEM, 10% fetal calf serum, 1% Pen/Strep (Penicillin/Streptomycin) and 1.0 mg/ml of the selection marker G418.
To make a membrane preparation the cells were grown to approximately 80% confluence. The cells were washed twice in phosphate-buffered saline and harvested. The cells were pelleted using a brief centrifugation and the cell pellet was kept on ice. The cell pellet was homogenised with ULTRA-THURRAX™ dispersing instrument for 20-30 seconds in a suitable amount of buffer 1 (e.g., 10 ml). The homogenate was centrifuged for 15 minutes. The pellet was re-suspended (homogenised) in 10 ml buffer 2 and centrifuged. This step was repeated once more. The resulting pellet was re-suspended in buffer 2 and the protein concentration was determined. The membranes were aliquoted and stored at minus 80° C.
For the receptor binding assay in the presence of low HSA (0.005%) 50 μl of the assay buffer was added to each well of an assay plate. Assay continued with step 3.
For the receptor binding assay in the presence of high HSA (2%) 50 μl of the 8% albumin stock was added to each well of an assay plate. Assay continued with step 3.
Cell membrane aliquots were thawed and diluted to their working concentration. Fifty μl were added to each well in the assay plate.
WGA SPA beads were suspended in assay buffer at 20 mg/ml. The suspension was diluted to 10 mg/ml in assay buffer just prior to addition to the assay plate. Fifty μl were added to each well in the assay plate.
The incubation was started by adding 25 μl of 480 pM solution of [^125I]-GLP-1]-(7-36)NH2 to each well of the assay plate. A 25 μl aliquot was reserved for measuring total counts/well.
The assay plate was incubated for 2 h at 30° C.
The assay plate was centrifuged for 10 min.
The assay plate was read in a Packard TopCount NXT instrument.
The data from the TopCount instrument were transferred to GraphPad Prism software. The software averaged the values for the replicates and performed a non-linear regression. IC50 values were calculated by the software and reported in nM.

[3] = Pharmacokinetic study in minipigs (i.v.); settings: male, Göttingen, minipig, in vivo, iv, 2 nmol/kg
Experimental: as §1, §2, §3, §4, §5

Row | Compound | EC50 (human GLP-1 receptor [1]) [nM] | half-life (in vivo) [h] | Low HSA IC50 (human GLP-1 receptor [2]; Low HSA IC50, low serum albumin (max. 0.001% final assay concentration)) [nM] | IC50 (human GLP-1 receptor [2]) [nM] | half-life [3] [h]
1 | CC[C@H](C)[C@H](NC(=O)[C@H](Cc1ccccc1)NC(=O)[C@H](CCCCNC(=O)COCCOCCNC(=O)COCCOCCNC(=O)CC[C@H](NC(=O)CCCCCCCCCCCCCCCCC(=O)O)C(=O)O)NC(=O)[C@H](CCCNC(=N)N)NC(=O)[C@H](C)NC(=O)[C@H](C)NC(=O)[C@H](CCC(N)=O)NC(=O)[C@H](CCC(=O)O)NC(=O)[C@H](CCC(=O)O)NC(=O)[C@H](CC(C)C)NC(=O)[C@H](Cc1ccc(O)cc1)NC(=O)[C@H](CO)NC(=O)[C@H](CO)NC(=O)[C@@H](NC(=O)[C@H](CC(=O)O)NC(=O)[C@H](CO)NC(=O)[C@@H](NC(=O)[C@H](Cc1ccccc1)NC(=O)[C@@H](NC(=O)CNC(=O)[C@H](CCC(=O)O)NC(=O)C(C)(C)NC(=O)[C@@H](N)Cc1c[nH]cn1)[C@@H](C)O)[C@@H](C)O)C(C)C)C(=O)N[C@@H](CCCCNC(=O)COCCOCCNC(=O)COCCOCCNC(=O)CC[C@H](NC(=O)CCCCCCCCCCCCCCCCC(=O)O)C(=O)O)C(=O)N[C@@H](Cc1c[nH]c2ccccc12)C(=O)N[C@@H](CC(C)C)C(=O)N[C@H](C(=O)N[C@@H](CCCNC(=N)N)C(=O)NCC(=O)N[C@@H](CCCNC(=N)N)C(=O)N[C@@H](CCCCNC(=O)COCCOCCNC(=O)COCCOCCNC(=O)CC[C@H](NC(=O)CCCCCCCCCCCCCCCCC(=O)O)C(=O)O)C(=O)O)C(C)C [Example 10] (H-H[Aib]EGTFTSDVSSYLEEQAARK([AEEA-AEEA-γGlu-C18 diacid])FIK([AEEA-AEEA-γGlu-C18 diacid])WLVRGRK([AEEA-AEEA-γGlu-C18 diacid])-OH; N-terminus and C-terminus assumed) | 0.026 | 158 |  |  | 
2 | I: H[Aib]EGTFTSDVSKYLEGQAARKFIAWLVRGRK / II: {C18 diacid-γGlu}-SSSSSS / III: {C18 diacid-γGlu}-SSSSSS / IV: {C18 diacid-γGlu}-SSSSSS (amide I:12-III:C, I:21-II:C, I:31-IV:C) [Example 9] | 0.067 |  |  | > 1000 | 
3 | CC[C@H](C)[C@H](NC(=O)[C@H](Cc1ccccc1)NC(=O)[C@H](CCC(=O)O)NC(=O)[C@H](CCCNC(=N)N)NC(=O)[C@H](C)NC(=O)[C@H](C)NC(=O)[C@H](CCC(N)=O)NC(=O)[C@H](CCCCNC(=O)COCCOCCNC(=O)COCCOCCNC(=O)CC[C@H](NC(=O)[C@H]1CC[C@H](CNC(=O)CCCCCCCCCCCCCCCS(=O)(=O)O)CC1)C(=O)O)NC(=O)[C@H](CCC(=O)O)NC(=O)[C@H](CC(C)C)NC(=O)[C@H](Cc1ccc(O)cc1)NC(=O)[C@H](CCCCNC(=O)COCCOCCNC(=O)COCCOCCNC(=O)CC[C@H](NC(=O)[C@H]1CC[C@H](CNC(=O)CCCCCCCCCCCCCCCS(=O)(=O)O)CC1)C(=O)O)NC(=O)[C@H](CO)NC(=O)[C@@H](NC(=O)[C@H](CC(=O)O)NC(=O)[C@H](CO)NC(=O)[C@@H](NC(=O)[C@H](Cc1ccccc1)NC(=O)[C@@H](NC(=O)CNC(=O)[C@H](CCC(=O)O)NC(=O)C(C)(C)NC(=O)[C@@H](N)Cc1c[nH]cn1)[C@@H](C)O)[C@@H](C)O)C(C)C)C(=O)N[C@@H](CCCCNC(=O)COCCOCCNC(=O)COCCOCCNC(=O)CC[C@H](NC(=O)[C@H]1CC[C@H](CNC(=O)CCCCCCCCCCCCCCCS(=O)(=O)O)CC1)C(=O)O)C(=O)N[C@@H](Cc1c[nH]c2ccccc12)C(=O)N[C@@H](CC(C)C)C(=O)N[C@H](C(=O)N[C@@H](CCCNC(=N)N)C(=O)NCC(=O)N[C@@H](CCCNC(=N)N)C(=O)NCC(=O)O)C(C)C [Example 1] |  |  |  |  | 162

The next lines start with results.

Row | EC50 (human GLP-1 receptor [1]) [nM] | half-life (in vivo) [h] | Low HSA IC50 (human GLP-1 receptor [2]; Low HSA IC50, low serum albumin (max. 0.001% final assay concentration)) [nM] | IC50 (human GLP-1 receptor [2]) [nM] | Compound | half-life [3] [h]
4 | 0.014 |  | 0.4 |  | CC[C@H](C)[C@H](NC(=O)[C@H](Cc1ccccc1)NC(=O)[C@H](CCC(=O)O)NC(=O)[C@H](CCCNC(=N)N)NC(=O)[C@H](C)NC(=O)[C@H](C)NC(=O)[C@H](CCC(N)=O)NC(=O)[C@H](CCCCNC(=O)COCCOCCNC(=O)COCCOCCNC(=O)COCCOCCNC(=O)COCCOCCNC(=O)COCCOCCNC(=O)[C@@H](N)CCCCNC(=O)[C@@H](N)CCCCNC(=O)CCCCCCCCCCCCCCCCC(=O)O)NC(=O)[C@H](CCC(=O)O)NC(=O)[C@H](CC(C)C)NC(=O)[C@H](Cc1ccc(O)cc1)NC(=O)[C@H](CCCCNC(=O)COCCOCCNC(=O)COCCOCCNC(=O)COCCOCCNC(=O)COCCOCCNC(=O)COCCOCCNC(=O)[C@@H](N)CCCCNC(=O)[C@@H](N)CCCCNC(=O)CCCCCCCCCCCCCCCCC(=O)O)NC(=O)[C@H](CO)NC(=O)[C@@H](NC(=O)[C@H](CC(=O)O)NC(=O)[C@H](CO)NC(=O)[C@@H](NC(=O)[C@H](Cc1ccccc1)NC(=O)[C@@H](NC(=O)CNC(=O)[C@H](CCC(=O)O)NC(=O)C(C)(C)NC(=O)[C@@H](N)Cc1c[nH]cn1)[C@@H](C)O)[C@@H](C)O)C(C)C)C(=O)N[C@@H](CCCCNC(=O)COCCOCCNC(=O)COCCOCCNC(=O)COCCOCCNC(=O)COCCOCCNC(=O)COCCOCCNC(=O)[C@@H](N)CCCCNC(=O)[C@@H](N)CCCCNC(=O)CCCCCCCCCCCCCCCCC(=O)O)C(=O)N[C@@H](Cc1c[nH]c2ccccc12)C(=O)N[C@@H](CC(C)C)C(=O)N[C@H](C(=O)N[C@@H](CCCNC(=N)N)C(=O)NCC(=O)N[C@@H](CCCNC(=N)N)C(=O)NCC(=O)O)C(C)C [Example 16] | 
5 | 0.018 | 143 |  |  | CC[C@H](C)[C@H](NC(=O)[C@H](Cc1ccccc1)NC(=O)[C@H](CCC(=O)O)NC(=O)[C@H](CCCNC(=N)N)NC(=O)[C@H](C)NC(=O)[C@H](C)NC(=O)[C@H](CCC(N)=O)NC(=O)[C@H](CCCCNC(=O)COCCOCCNC(=O)COCCOCCNC(=O)COCCOCCNC(=O)COCCOCCNC(=O)COCCOCCNC(=O)[C@@H](N)CCCCNC(=O)[C@@H](N)CCCCNC(=O)[C@@H](N)CCCCNC(=O)CCCCCCCCCCCCCCCCC(=O)O)NC(=O)[C@H](CCC(=O)O)NC(=O)[C@H](CC(C)C)NC(=O)[C@H](Cc1ccc(O)cc1)NC(=O)[C@H](CCCCNC(=O)COCCOCCNC(=O)COCCOCCNC(=O)COCCOCCNC(=O)COCCOCCNC(=O)COCCOCCNC(=O)[C@@H](N)CCCCNC(=O)[C@@H](N)CCCCNC(=O)[C@@H](N)CCCCNC(=O)CCCCCCCCCCCCCCCCC(=O)O)NC(=O)[C@H](CO)NC(=O)[C@@H](NC(=O)[C@H](CC(=O)O)NC(=O)[C@H](CO)NC(=O)[C@@H](NC(=O)[C@H](Cc1ccccc1)NC(=O)[C@@H](NC(=O)CNC(=O)[C@H](CCC(=O)O)NC(=O)C(C)(C)NC(=O)[C@@H](N)Cc1c[nH]cn1)[C@@H](C)O)[C@@H](C)O)C(C)C)C(=O)N[C@@H](CCCCNC(=O)COCCOCCNC(=O)COCCOCCNC(=O)COCCOCCNC(=O)COCCOCCNC(=O)COCCOCCNC(=O)[C@@H](N)CCCCNC(=O)[C@@H](N)CCCCNC(=O)[C@@H](N)CCCCNC(=O)CCCCCCCCCCCCCCCCC(=O)O)C(=O)N[C@@H](Cc1c[nH]c2ccccc12)C(=O)N[C@@H](CC(C)C)C(=O)N[C@H](C(=O)N[C@@H](CCCNC(=N)N)C(=O)NCC(=O)N[C@@H](CCCNC(=N)N)C(=O)NCC(=O)O)C(C)C [Example 17] | 
6 | 0.018 | 140 |  | 100 | CC[C@H](C)[C@H](NC(=O)[C@H](Cc1ccccc1)NC(=O)[C@H](CCC(=O)O)NC(=O)[C@H](CCCNC(=N)N)NC(=O)[C@H](C)NC(=O)[C@H](C)NC(=O)[C@H](CCC(N)=O)NC(=O)[C@H](CCCCNC(=O)COCCOCCNC(=O)COCCOCCNC(=O)[C@@H](N)CCCCNC(=O)[C@@H](N)CCCCNC(=O)CCCCCCCCCCCCCCCS(=O)(=O)O)NC(=O)[C@H](CCC(=O)O)NC(=O)[C@H](CC(C)C)NC(=O)[C@H](Cc1ccc(O)cc1)NC(=O)[C@H](CCCCNC(=O)COCCOCCNC(=O)COCCOCCNC(=O)[C@@H](N)CCCCNC(=O)[C@@H](N)CCCCNC(=O)CCCCCCCCCCCCCCCS(=O)(=O)O)NC(=O)[C@H](CO)NC(=O)[C@@H](NC(=O)[C@H](CC(=O)O)NC(=O)[C@H](CO)NC(=O)[C@@H](NC(=O)[C@H](Cc1ccccc1)NC(=O)[C@@H](NC(=O)CNC(=O)[C@H](CCC(=O)O)NC(=O)C(C)(C)NC(=O)[C@@H](N)Cc1c[nH]cn1)[C@@H](C)O)[C@@H](C)O)C(C)C)C(=O)N[C@@H](CCCCNC(=O)COCCOCCNC(=O)COCCOCCNC(=O)[C@@H](N)CCCCNC(=O)[C@@H](N)CCCCNC(=O)CCCCCCCCCCCCCCCS(=O)(=O)O)C(=O)N[C@@H](Cc1c[nH]c2ccccc12)C(=O)N[C@@H](CC(C)C)C(=O)N[C@H](C(=O)N[C@@H](CCCNC(=N)N)C(=O)NCC(=O)N[C@@H](CCCNC(=N)N)C(=O)NCC(=O)O)C(C)C [Example 14] | 
